According to PubChem BioAssay AID232 (DTP/NCI, 2004):
Values joined by “and” are separate entries in the source; they are usually repeats but may differ in a detail not shown here. Equal entries are not always repeated. Inconclusive results and toxic doses are left out.

Test system: Gardner 6C3HED lymphosarcoma ip, C3AKF1 mice, survival T/C
Assay: NCI In Vivo Anticancer Drug Screen. Data for tumor model Lymphosarcoma Gardner 6C3HED (intraperitoneal) in C3AKF1 (CHKRF1) mice
Details: endpoint: survival time, mean or median, higher = longer survival
Description: The antitumor activity of compounds was measured in mice bearing transplantable tumors. Survival or tumor size were measured and the results are expressed as the measurement made in the treated group (T) divided by the measurement made in the vehicle treated control group (C). The tumor model used in this assay is Lymphosarcoma Gardner 6C3HED (intraperitoneal) in C3AKF1 (CHKRF1) mice

[1] = dose: 150.0 mg/kg/injection, schedule: Q01DX010 (ip), vehicle: saline
[2] = dose: 2.0 mg/kg/injection, schedule: Q01DX010 (ip), vehicle: saline
[3] = dose: 4.0 mg/kg/injection, schedule: Q01DX010 (ip), vehicle: saline
[4] = dose: 8.0 mg/kg/injection, schedule: Q01DX010 (ip), vehicle: saline
[5] = dose: 16.0 mg/kg/injection, schedule: Q01DX010 (ip), vehicle: saline
[6] = dose: 0.13 mg/kg/injection, schedule: Q01DX010 (ip), vehicle: saline
[7] = dose: 10.0 mg/kg/injection, schedule: Q01DX010 (ip), vehicle: saline
[8] = dose: 20.0 mg/kg/injection, schedule: Q01DX010 (ip), vehicle: saline
[9] = dose: 40.0 mg/kg/injection, schedule: Q01DX010 (ip), vehicle: saline
[10] = dose: 80.0 mg/kg/injection, schedule: Q01DX010 (ip), vehicle: saline
[11] = dose: 18.8 mg/kg/injection, schedule: Q01DX010 (ip), vehicle: saline
[12] = dose: 37.5 mg/kg/injection, schedule: Q01DX010 (ip), vehicle: saline
[13] = dose: 75.0 mg/kg/injection, schedule: Q01DX010 (ip), vehicle: saline
[14] = dose: 1.0 mg/kg/injection, schedule: Q01DX010 (ip), vehicle: saline
[15] = dose: 62.5 mg/kg/injection, schedule: Q01DX010 (ip), vehicle: saline
[16] = dose: 125.0 mg/kg/injection, schedule: Q01DX010 (ip), vehicle: saline
[17] = dose: 250.0 mg/kg/injection, schedule: Q01DX010 (ip), vehicle: saline
[18] = dose: 500.0 mg/kg/injection, schedule: Q01DX010 (ip), vehicle: saline
[19] = dose: 5.0 mg/kg/injection, schedule: Q01DX010 (ip), vehicle: saline
[20] = dose: 12.5 mg/kg/injection, schedule: Q01DX010 (ip), vehicle: saline
[21] = dose: 2.5 mg/kg/injection, schedule: Q01DX010 (ip), vehicle: saline
[22] = dose: 0.5 mg/kg/injection, schedule: Q01DX010 (ip), vehicle: saline
[23] = dose: 6.0 mg/kg/injection, schedule: Q01DX010 (ip), vehicle: saline
[24] = dose: 12.0 mg/kg/injection, schedule: Q01DX010 (ip), vehicle: saline
[25] = dose: 4.0 mg/kg/injection, schedule: Q01DX010 (ip), vehicle: other
[26] = dose: 8.0 mg/kg/injection, schedule: Q01DX010 (ip), vehicle: other
[27] = dose: 16.0 mg/kg/injection, schedule: Q01DX010 (ip), vehicle: other
[28] = dose: 32.0 mg/kg/injection, schedule: Q01DX010 (ip), vehicle: other

For `C[C@H](N)C(=O)N[C@@H]1[C@H]2C(=C(O)C[C@@H](O)[C@@H]2O)C(=O)O[C@@H]1C`, the T/C [1] was 110 % of control, the T/C (dose: 300.0 mg/kg/injection, schedule: Q01DX010 (ip), vehicle: saline) was 110 % of control and 115 % of control and the T/C (dose: 600.0 mg/kg/injection, schedule: Q01DX010 (ip), vehicle: saline) was 120 % of control. The T/C (dose: 1200.0 mg/kg/injection, schedule: Q01DX010 (ip), vehicle: saline) was 115 % of control and 120 % of control.

`O=C(Nc1ccc(NC2=NCCN2)cc1)c1ccc(C(=O)Nc2ccc(NC3=NCCN3)cc2)cc1` was tested, and the T/C [2] was 180 % of control, the T/C [3] was 195 % of control and 265 % of control and the T/C [4] was 190 % of control. For the same compound, the T/C [5] was 115 % of control.

In the case of `CC[C@]1(O)C[C@H]2CN(CCc3c([nH]c4ccccc34)[C@@](C(=O)OC)(c3cc4c(cc3OC)N(C=O)[C@H]3[C@@](O)(C(=O)OC)[C@H](OC(C)=O)[C@]5(CC)C=CCN6CC[C@]43[C@@H]65)C2)C1`, the T/C (dose: 0.12 mg/kg/injection, schedule: Q01DX010 (ip), vehicle: saline) is reported as 250 % of control and the T/C [6] is reported as 285 % of control and 300 % of control.

With `O[C@H](CN1CC1)[C@@H](O)CN1CC1` the T/C (dose: 62.5 micrograms/kg/injection, schedule: Q01DX010 (ip), vehicle: saline) was 96 % of control, the T/C (dose: 125.0 micrograms/kg/injection, schedule: Q01DX010 (ip), vehicle: saline) was 92 % of control and the T/C (dose: 250.0 micrograms/kg/injection, schedule: Q01DX010 (ip), vehicle: saline) was 155 % of control. The T/C (dose: 500.0 micrograms/kg/injection, schedule: Q01DX010 (ip), vehicle: saline) was 151 % of control.

For `Cn1c(N)nc2nc[nH]c2c1=S`, the T/C [7] was 96 % of control, the T/C [8] was 96 % of control and the T/C [9] was 107 % of control. The T/C [10] was 107 % of control.

`N#CCSc1ncnc2nc[nH]c12` was tested, and the T/C (dose: 15.0 mg/kg/injection, schedule: Q01DX010 (ip), vehicle: saline) was 100 % of control and 111 % of control, the T/C (dose: 30.0 mg/kg/injection, schedule: Q01DX010 (ip), vehicle: saline) was 100 % of control and the T/C (dose: 60.0 mg/kg/injection, schedule: Q01DX010 (ip), vehicle: saline) was 95 % of control and 114 % of control. The T/C (dose: 120.0 mg/kg/injection, schedule: Q01DX010 (ip), vehicle: saline) was 92 % of control and 95 % of control.

With `CN(C)c1nc(N(C)C)nc(N(C)C)n1` the T/C [11] was 104 % of control, the T/C [12] was 104 % of control and the T/C [13] was 95 % of control and 100 % of control. The T/C [1] was 100 % of control and 104 % of control.

For `CCN(CC)c1ccc2cc3ccc(=[N+](CC)CC)cc-3oc2c1`, the T/C [14] was 100 % of control and 109 % of control, the T/C [2] was 100 % of control and 122 % of control and the T/C [3] was 100 % of control and 104 % of control. The T/C [4] was 95 % of control and 100 % of control.

With `OCC1OC(n2cnc3c(Cl)ncnc32)C(O)C1O` (configuration not stated) the T/C [15] was 95 % of control, the T/C [16] was 90 % of control and the T/C [17] was 90 % of control. For the same compound, the T/C [18] was 90 % of control and 100 % of control.

In the case of `CN(C)c1ccc(/C=C/c2ccnc3ccccc23)cc1`, the T/C [19] is reported as 96 % of control, the T/C [7] is reported as 92 % of control and the T/C [8] is reported as 92 % of control.

With `CCCNc1ncnc2[nH]ncc12` the T/C (dose: 3.13 mg/kg/injection, schedule: Q01DX010 (ip), vehicle: saline) was 86 % of control and 90 % of control, the T/C (dose: 6.25 mg/kg/injection, schedule: Q01DX010 (ip), vehicle: saline) was 90 % of control and the T/C [20] was 90 % of control and 95 % of control.

In the case of `O=C(Nc1ccc(C2=NCCN2)cc1)c1cccc(C(=O)Nc2ccc(C3=NCCN3)cc2)c1`, the T/C [4] is reported as 183 % of control and 200 % of control, the T/C [5] is reported as 272 % of control and 300 % of control and the T/C (dose: 32.0 mg/kg/injection, schedule: Q01DX010 (ip), vehicle: saline) is reported as 279 % of control and 300 % of control. The T/C (dose: 64.0 mg/kg/injection, schedule: Q01DX010 (ip), vehicle: saline) was 279 % of control and 290 % of control.

For `Oc1cc(CN(CCCl)CCCl)c(O)cc1CN(CCCl)CCCl`, the T/C (dose: 0.63 mg/kg/injection, schedule: Q01DX010 (ip), vehicle: saline) was 113 % of control, the T/C [21] was 168 % of control and the T/C [19] was 91 % of control and 122 % of control.

For `CSCS(=O)C[C@H](CO)NC(=O)/C=C/c1c(C)[nH]c(=O)[nH]c1=O` (some centres not stated), the T/C [6] was 87 % of control, the T/C (dose: 0.25 mg/kg/injection, schedule: Q01DX010 (ip), vehicle: saline) was 90 % of control and the T/C [22] was 90 % of control and 91 % of control.

For `O=C(Nc1ccc(C2=NCCN2)cc1)c1ccc(C(=O)Nc2ccc(C3=NCCN3)cc2)c([N+](=O)[O-])c1`, the T/C [23] was 218 % of control and 272 % of control, the T/C [4] was 300 % of control and the T/C [24] was 268 % of control and 300 % of control. For the same compound, the T/C (dose: 18.0 mg/kg/injection, schedule: Q01DX010 (ip), vehicle: saline) was 163 % of control and 259 % of control.

`S=P(N1CCOCC1)(N1CC1)N1CC1` was tested, and the T/C [21] was 91 % of control and 100 % of control (2×), the T/C [19] was 91 % of control and 92 % of control and 104 % of control and the T/C [7] was 89 % of control and 91 % of control and 104 % of control. The T/C [8] was 108 % of control and 121 % of control.

With `OCC1OC(n2cnc3c(=S)nc[nH]c32)C(O)C1O` (configuration not stated) the T/C [8] was 90 % of control and 95 % of control, the T/C [9] was 86 % of control and the T/C [10] was 90 % of control. For the same compound, the T/C (dose: 160.0 mg/kg/injection, schedule: Q01DX010 (ip), vehicle: saline) was 86 % of control and 90 % of control.

With `NC(=O)N(CCCl)N=O` the T/C [22] was 150 % of control and 204 % of control, the T/C [14] was 250 % of control and 254 % of control and the T/C [3] was 86 % of control.

`CCOC(N)=O` was tested, and the T/C [16] was 91 % of control and 100 % of control and the T/C [18] was 95 % of control.

For `O=C(Nc1ccc(C2=NCCN2)cc1)c1ccc(C(=O)Nc2ccc(C3=NCCN3)cc2)c(Cl)c1`, the T/C (dose: 2.0 mg/kg/injection, schedule: Q01DX010 (ip), vehicle: other) was 116 % of control, the T/C [25] was 150 % of control and 159 % of control and the T/C [26] was 225 % of control and 245 % of control. For the same compound, the T/C [27] was 216 % of control and 268 % of control and the T/C [28] was 191 % of control and 200 % of control.

In the case of `CC(=O)O[C@]1(C(C)=O)CC[C@H]2[C@@H]3C[C@H](C)C4=CC(=O)C=C[C@]4(C)[C@@]3(F)[C@@H](O)C[C@@]21C`, the T/C (dose: 12.5 mg/kg/injection, schedule: Q01DX010 (sc), vehicle: steriod suspending solution) is reported as 111 % of control, the T/C (dose: 25.0 mg/kg/injection, schedule: Q01DX010 (sc), vehicle: steriod suspending solution) is reported as 92 % of control and the T/C (dose: 50.0 mg/kg/injection, schedule: Q01DX010 (sc), vehicle: steriod suspending solution) is reported as 88 % of control.

In the case of `CC(=O)Nc1ccc2nc3ccc(NC(C)=O)cc3[n+](-c3ccccc3)c2c1`, the T/C [20] is reported as 111 % of control, the T/C (dose: 25.0 mg/kg/injection, schedule: Q01DX010 (ip), vehicle: saline) is reported as 107 % of control and the T/C (dose: 50.0 mg/kg/injection, schedule: Q01DX010 (ip), vehicle: saline) is reported as 103 % of control. For the same compound, the T/C (dose: 100.0 mg/kg/injection, schedule: Q01DX010 (ip), vehicle: saline) was 103 % of control.

With `CS(=O)(=O)OCCCl` the T/C [11] was 100 % of control, the T/C [12] was 100 % of control and the T/C [13] was 95 % of control. The T/C [1] was 100 % of control.

`O=C(Nc1ccc(C2=NCCN2)cc1)c1ccc(C(=O)Nc2ccc(C3=NCCN3)cc2)cc1` was tested, and the T/C [25] was 179 % of control and 186 % of control, the T/C [26] was 277 % of control and 300 % of control and the T/C [27] was 229 % of control and 300 % of control. The T/C [28] was 175 % of control and 200 % of control and the T/C (dose: 64.0 mg/kg/injection, schedule: Q01DX010 (ip), vehicle: other) was 166 % of control and 200 % of control.

With `Nc1ncnc2[nH]ncc12` the T/C (dose: 1.5 mg/kg/injection, schedule: Q01DX010 (ip), vehicle: saline) was 95 % of control and 110 % of control, the T/C (dose: 3.0 mg/kg/injection, schedule: Q01DX010 (ip), vehicle: saline) was 100 % of control and 104 % of control and the T/C [23] was 95 % of control. The T/C [24] was 95 % of control and the T/C [5] was 90 % of control.

`CC(=O)N(C)C` was tested, and the T/C [15] was 86 % of control and 90 % of control, the T/C [16] was 90 % of control and 95 % of control and the T/C [17] was 95 % of control and 100 % of control. For the same compound, the T/C [18] was 100 % of control.
